Data on 6 molecules can be found in patent US20040266659A1, “[…] THAT ENHANCE RECALL AND LUCIDITY DURING DREAMING” (priority 2003, published 2004).

Read-outs that look alike come from different tables or passages of the source.

The test system of one data set is lucid dreaming. An excerpt: These include: 1. Using a cholinergic agonist (e.g., nicotine).
The next data set concerns REM sleep. The settings on record: cited from earlier work.
The test system of data set [1] is normal volunteers self-selected for high dream recall and interest in lucid dreaming. Description: randomized, double blind, placebo-controlled crossover trial of donepizil for lucid dreaming. The settings on record: for odds of lucid dreaming: placebo 0.031. The data set is classed as in vivo, human. An excerpt:
Subjects collected dream content and other self-report measures on three nights, separated by a washout period of at least one week. […] After each spontaneous awakening during the three nights, Ss evaluated dream content on a range of measures including bizarreness, complexity, and intensity, affect, cognitive clarity, lucidity, and control. They also estimated sleep quality, insomnia, and degree of any adverse effects.

Where [2] appears, read: rivastigmin 6-12 mg dose, galantamine 8-16 mg.

huperzine: the “outcome of test for lucid dreaming enhancement” value with lucid dreaming (dose correspondence with Aricept not yet worked out) is “promising results”.
On to `C[N+](C)(C)CCOC(N)=O` [carbachol], for which, in the data set on REM sleep (microinjection in certain locations of the brain, such as the Pons), the “effect on REM sleep” value is “elicits extended periods of REM sleep”.
In the case of `COC(=O)C1=CCCN(C)C1` [arecoline], in the data set with REM sleep (scientific literature studies), the “effect on REM sleep” value is “triggering/intensification of REM sleep”.
In the case of `COc1ccc2c3c1O[C@H]1C[C@@H](O)C=C[C@@]31CCN(C)C2` [galantamine], the “side effects compared with Aricept” value in the data set on lucid dreaming (setting [2]) is recorded as “perhaps fewer side effects”.
For the molecule `CCN(C)C(=O)Oc1cccc([C@H](C)N(C)C)c1` [Exelon, rivastigmin], in the data set with lucid dreaming (setting [2]), the “efficacy compared with Aricept” value was “work as well as” and the “side effects compared with Aricept” value is “perhaps fewer side effects”.
Take `COc1cc2c(cc1OC)C(=O)C(CC1CCN(Cc3ccccc3)CC1)C2` (centres unmarked) [donepizil]: the “levels of dream variables, 5 mg dose vs placebo” value in data set [1] (5 mg compared to placebo) is “significant elevations”. For the same molecule, the “odds of lucid dreaming” value in data set [1] (5 mg) stood at 0.429; in data set [1] (10 mg), 0.754. Moreover, the “levels of dream variables, 10 mg dose vs 5 mg dose” value in data set [1] (10 mg compared to 5 mg) is “significantly higher levels”. Also, the “self-reported cognitive clarity, self-reflection and lucidity during dreaming, compared to placebo” value in data set [1] (both 5 and 10 mg dosages) is “significantly enhance”. Moreover, the “frequency of sleep paralysis” value in data set [1] (donepizil vs placebo) is “significantly elevated”. Also, the “Ss reporting one or more lucid dreams on the experimental nights” value in data set [1] (nine of 10 Ss, 5 or 10 mg at bedtime, only one S on a placebo night) came out at 90%. Moreover, the “estimated time awake during the night” value in data set [1] (of a 9.0 hr night, placebo 126 min, p<0.05) is 176 min. Moreover, the “incidence of adverse events, notably mild insomnia and gastrointestinal symptoms” value in data set [1] (primarily associated with the higher dose, two subjects nausea, one vomiting) is given as “low”. Also, in data set [1] (self-report after each spontaneous awakening, donepizil vs placebo), the “cognitive clarity, lucidity, recall, control, bizarreness and visual vividness compared to placebo” value is on record as “significantly elevated”. The “increase in estimated time awake during the night” value in data set [1] (vs placebo, 9.0 hr night, p<0.05) is on record as 40%.
